Experimental findings from article PMC8286840, “Identifying SARS-CoV-2 antiviral compounds by screening for small molecule inhibitors of Nsp3 papain-like protease” (Biochemical Journal, 2021) are described below.

Where a name gives a salt, the structure may show the parent alone. Read-outs that look alike come from different tables or passages of the source.

The target of assay [1] is T1, SARS-CoV-2 PLpro (nsp3 1564–1878) (Severe acute respiratory syndrome coronavirus 2, UniProt P0DTD1). The assay is described as follows: biochemical. More on the design: FRET-quenched peptide (Pro3) cleavage by PLpro, 10 min pre-incubation, slope over 20 min, normalised to no-compound control. Conditions: low concentration screen, read-out: % of control remaining.
Assay [2] deals with T1, SARS-CoV-2 PLpro (nsp3 1564–1878). The assay is described as follows: biochemical. Also on record: FRET-quenched peptide (Pro3) cleavage by PLpro, 10 min pre-incubation, slope over 20 min, normalised to no-compound control. The following applies: high concentration screen, read-out: % of control remaining.

With `CC(C)n1c(/C=C/[C@H](O)C[C@H](O)CC(=O)O)c(-c2ccc(F)cc2)c2ccccc21` [Fluvastatin], in assay [1] (Well no.=1902), the remaining activity at 1.25 µM worked out at 97.7%. Besides, the remaining activity at 3.75 µM in assay [2] (Well no.=1902) was found to be 98.9%.

On to `COCCCC/C(=N\OCCN)c1ccc(C(F)(F)F)cc1` [Fluvoxamine maleate], for which the remaining activity at 1.25 µM in assay [1] (Well no.=467) worked out at 95.7%. Also, the remaining activity at 3.75 µM in assay [2] (Well no.=467) was found to be 96.4%.

Consider `C[C@@H](C(=O)O)N(C)C(=O)OCC1c2ccccc2-c2ccccc21` [Fmoc-N-Me-Ala-OH], for which the remaining activity at 1.25 µM in assay [1] (Well no.=7976) was 91.3%. In addition, the remaining activity at 3.75 µM in assay [2] (Well no.=7976) was 92.8%.

As for `CC(C)C[C@@H](C(=O)O)N(C)C(=O)OCC1c2ccccc2-c2ccccc21` [Fmoc-N-Me-Leu-OH], the remaining activity at 1.25 µM in assay [1] (Well no.=7972) was found to be 92.7%. In assay [2] (Well no.=7972), the remaining activity at 3.75 µM came to 94.1%.

`CN(C(=O)OCC1c2ccccc2-c2ccccc21)[C@@H](Cc1ccccc1)C(=O)O` [Fmoc-N-Me-Phe-OH]: in assay [1] (Well no.=7888), the remaining activity at 1.25 µM turned out to be 101%. Also, in assay [2] (Well no.=7888), the remaining activity at 3.75 µM was 102%.

As to `Nc1nc(=O)c2nc(CNc3ccc(C(=O)N[C@@H](CCC(=O)O)C(=O)O)cc3)cnc2[nH]1` [Folic acid], the remaining activity at 1.25 µM in assay [1] (Well no.=7300) stood at 97.8%. Besides, in assay [2] (Well no.=7300), the remaining activity at 3.75 µM was 96.1%.

Turning to `COc1cc(=O)n(C)c2c(OCC(O)C(C)(C)O)cccc12` (stereo not shown) [Foliosidine], in assay [1] (Well no.=565), the remaining activity at 1.25 µM worked out at 104%. In addition, the remaining activity at 3.75 µM in assay [2] (Well no.=565) is 97.8%.

`C[C@]12CCC(=O)C(O)=C1CC[C@@H]1[C@@H]2CC[C@]2(C)C(=O)CC[C@@H]12` [Formestane]: the remaining activity at 1.25 µM in assay [1] (Well no.=2134) was determined as 99.1%. In assay [2] (Well no.=2134), the remaining activity at 3.75 µM came out at 101%.

As to `COc1ccc(-c2coc3cc(O)ccc3c2=O)cc1` [Formononetin], the remaining activity at 1.25 µM in assay [1] (Well no.=3611) is 96.9%. In addition, in assay [2] (Well no.=3611), the remaining activity at 3.75 µM is 96.2%.

As to `COc1ccc(C[C@H](C)NC[C@@H](O)c2ccc(O)c(NC=O)c2)cc1` [Formoterol (Fumarate)], in assay [1] (Well no.=6413), the remaining activity at 1.25 µM is 101%. Moreover, in assay [2] (Well no.=6413), the remaining activity at 3.75 µM is 95.1%.

Take `COc1ccc(C[C@@H](C)NC[C@H](O)c2ccc(O)c(NC=O)c2)cc1` [Formoterol hemifumarate]: the remaining activity at 1.25 µM in assay [1] (Well no.=5014) amounted to 109%. In assay [2] (Well no.=5014), the remaining activity at 3.75 µM was 104%.

Consider `COc1ccc(C[C@@H](C)NC[C@H](O)c2ccc(O)c(NC=O)c2)cc1` [Formoterol], for which the remaining activity at 1.25 µM in assay [1] (Well no.=473) was found to be 101%. In addition, the remaining activity at 3.75 µM in assay [2] (Well no.=473) was determined as 99.6%.

With `C=C[C@@]1(C)CC(=O)[C@]2(O)[C@@]3(C)[C@@H](O)CCC(C)(C)[C@@H]3[C@H](O)[C@H](OC(C)=O)[C@@]2(C)O1` [Forskolin], the remaining activity at 1.25 µM in assay [1] (Well no.=423) stood at 99.9%; in assay [1] (Well no.=3281), 99.5%; in assay [1] (Well no.=8331), 98.2%. Also, the results for the remaining activity at 3.75 µM in assay [2] (Well no.=423), in assay [2] (Well no.=3281) and in assay [2] (Well no.=8331) were 98.9%, 99.2% and 95.4%, respectively.

Consider `CC(C)CN(C[C@@H](OP(=O)(O)O)[C@H](Cc1ccccc1)NC(=O)O[C@H]1CCOC1)S(=O)(=O)c1ccc(N)cc1` [Fosamprenavir], for which, in assay [1] (Well no.=7846), the remaining activity at 1.25 µM worked out at 104%. Moreover, the remaining activity at 3.75 µM in assay [2] (Well no.=7846) was 102%.

As to `C[C@@H](O[C@H]1OCCN(Cc2nn(P(=O)(O)O)c(=O)[nH]2)[C@H]1c1ccc(F)cc1)c1cc(C(F)(F)F)cc(C(F)(F)F)c1` [Fosaprepitant (dimeglumine)], in assay [1] (Well no.=7483), the remaining activity at 1.25 µM is 104%. Besides, the remaining activity at 3.75 µM in assay [2] (Well no.=7483) was found to be 97.1%.

Regarding `C[C@@H](O[C@H]1OCCN(Cc2nn(P(=O)(O)O)c(=O)[nH]2)[C@H]1c1ccc(F)cc1)c1cc(C(F)(F)F)cc(C(F)(F)F)c1` [Fosaprepitant dimeglumine], the remaining activity at 1.25 µM in assay [1] (Well no.=5269) came to 97.5%. In addition, the remaining activity at 3.75 µM in assay [2] (Well no.=5269) worked out at 95.4%.

Consider `COc1ccc(/C=C\c2cc(OC)c(OC)c(OC)c2)cc1OP(=O)(O)O` [Fosbretabulin disodium], for which the remaining activity at 1.25 µM in assay [1] (Well no.=5660) was 95.9%. Moreover, the remaining activity at 3.75 µM in assay [2] (Well no.=5660) was 90.4%.

For the molecule `O=C(O)P(=O)(O)O` [Foscarnet Sodium], the remaining activity at 1.25 µM in assay [1] (Well no.=5321) turned out to be 101%. For the same molecule, the remaining activity at 3.75 µM in assay [2] (Well no.=5321) came to 95.6%.

Turning to `CCC(=O)O[C@@H](O[P@](=O)(CCCCc1ccccc1)CC(=O)N1C[C@H](C2CCCCC2)C[C@H]1C(=O)O)C(C)C` [Fosinopril (sodium)], the remaining activity at 1.25 µM in assay [1] (Well no.=8750) came to 93.5%. Further, in assay [2] (Well no.=8750), the remaining activity at 3.75 µM was found to be 94.7%.

Regarding `CCC(=O)O[C@@H](O[P@](=O)(CCCCc1ccccc1)CC(=O)N1C[C@H](C2CCCCC2)C[C@H]1C(=O)O)C(C)C` [Fosinopril Sodium], in assay [1] (Well no.=8492), the remaining activity at 1.25 µM is 101%. In assay [2] (Well no.=8492), the remaining activity at 3.75 µM stood at 102%.

For the molecule `CCC(=O)O[C@@H](O[P@](=O)(CCCCc1ccccc1)CC(=O)N1C[C@H](C2CCCCC2)C[C@H]1C(=O)O)C(C)C` [Fosinopril], in assay [1] (Well no.=1904), the remaining activity at 1.25 µM came out at 89.9%. The remaining activity at 3.75 µM in assay [2] (Well no.=1904) worked out at 89.1%.

In the case of `COc1cnc(-n2cnc(C)n2)c2c1c(C(=O)C(=O)N1CCN(C(=O)c3ccccc3)CC1)cn2COP(=O)(O)O` [Fostemsavir], the remaining activity at 1.25 µM in assay [1] (Well no.=7748) came to 101%. Further, the remaining activity at 3.75 µM in assay [2] (Well no.=7748) amounted to 102%.

For `C[C@H]1C(=O)CC[C@@H]2[C@]1(C)CC[C@H]1[C@@]2(C)CC[C@@]2(C)[C@@H]3CC(C)(C)CC[C@]3(C)CC[C@]12C` [Friedelin], the remaining activity at 1.25 µM in assay [1] (Well no.=3208) is 109%. Moreover, the remaining activity at 3.75 µM in assay [2] (Well no.=3208) is 110%.

With `O=c1[nH]c(=O)n(C2CCCO2)cc1F` (stereo not shown) [Ftorafur], the remaining activity at 1.25 µM in assay [1] (Well no.=2164) is 97.3%. In addition, the remaining activity at 3.75 µM in assay [2] (Well no.=2164) was 99.1%.

Consider `N[C@@H](CSCCCO)C(=O)O` [Fudosteine], for which the remaining activity at 1.25 µM in assay [1] (Well no.=5102) was 100%. Besides, the remaining activity at 3.75 µM in assay [2] (Well no.=5102) was 102%.

For the molecule `C[C@]12CC[C@@H]3c4ccc(O)cc4C[C@@H](CCCCCCCCC[S+]([O-])CCCC(F)(F)C(F)(F)F)[C@H]3[C@@H]1CC[C@@H]2O` (stereo partly shown) [Fulvestrant], the remaining activity at 1.25 µM in assay [1] (Well no.=2254) amounted to 97.2%. Also, the remaining activity at 3.75 µM in assay [2] (Well no.=2254) came to 96.8%.

In the case of `CO[C@@H]1[C@H](OC(=O)/C=C/C=C/C=C/C=C/C(=O)O)CC[C@]2(CO2)[C@H]1[C@@]1(C)O[C@@H]1CC=C(C)C` [Fumagillin], the remaining activity at 1.25 µM in assay [1] (Well no.=1621) was found to be 103%; in assay [1] (Well no.=3283), 102%. Also, the remaining activity at 3.75 µM in assay [2] (Well no.=1621) turned out to be 100%; in assay [2] (Well no.=3283), 101%.

For `O=C(O)/C=C/C(=O)O` [Fumaric acid], the remaining activity at 1.25 µM in assay [1] (Well no.=6539) was found to be 101%. The remaining activity at 3.75 µM in assay [2] (Well no.=6539) was found to be 82.4%.

As for `CCCC[C@@H](C)[C@@H](OC(=O)C[C@@H](CC(=O)O)C(=O)O)[C@H](C[C@@H](C)CCCCCC[C@@H](O)C[C@H](O)[C@H](C)N)OC(=O)C[C@@H](CC(=O)O)C(=O)O` [Fumonisin B2], the remaining activity at 1.25 µM in assay [1] (Well no.=3285) came out at 95.4%. Also, the remaining activity at 3.75 µM in assay [2] (Well no.=3285) was determined as 95.7%.
